Results: patent EP3889132B1, “MONOACYLGLYCEROL LIPASE (MAGL) INHIBITORS” (Università di Pisa, priority 2020, dated 2021)

Key:
[1] = molecular target: T1, recombinant human MAGL enzyme (Homo sapiens, UniProt Q99685); experiment: In vitro screening of activity on the recombinant human MAGL enzyme (4-NPA substrate, absorbance 405 nm); assay type: biochemical; details: substrate 4-NPA, room temperature, 30 minutes
T1 construct: purchased Cayman Chemical 10007812
T1 sequence (Q99685 1-303): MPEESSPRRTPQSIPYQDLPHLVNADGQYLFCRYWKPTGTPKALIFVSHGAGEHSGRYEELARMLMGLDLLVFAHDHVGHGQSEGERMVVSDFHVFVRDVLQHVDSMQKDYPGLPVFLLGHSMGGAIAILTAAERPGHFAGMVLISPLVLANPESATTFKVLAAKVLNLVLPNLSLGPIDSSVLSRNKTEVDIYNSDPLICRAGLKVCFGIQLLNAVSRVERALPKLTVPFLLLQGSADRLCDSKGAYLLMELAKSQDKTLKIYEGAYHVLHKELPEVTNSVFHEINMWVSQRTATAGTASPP
Description: The compound 4-nitrophenyl acetate (4-NPA Merck-Sigma Aldrich, 8430750025) was used as a substrate for the recombinant human MAGL enzyme (Cayman Chemical, 10007812). IC50 values were generated in microplates containing 96 wells. The catalytic reaction was carried out at room temperature, at a final volume of 200 µL in 10 mM Tris buffer at pH 7.2 containing 1 mM EDTA and 0.1 mg/ml BSA. A total of 150 µL of 4-NPA 133.3 µM in ethanol was added to 10 µL of DMSO containing the appropriate amount of compound (500 - 0.00256 µM). The reaction began with the addition of 40 µL of the MAGL enzyme (11 ng/well). […] After the reaction continued for 30 minutes, the absorbance values were then measured using a Victor X3 (PerkinElmer®) microplate reader at a wavelength of 405 nm. Two other analyzes were also performed in parallel: one reaction without compounds and the second containing neither compound nor enzyme. […] The IC50 values were calculated from the experimental data (absorbance) through the construction of dose-response curves.

[2] = molecular target: T1, recombinant human MAGL enzyme; experiment: Enzymatic kinetics experiments with scalar concentrations of 4-NPA (Michaelis-Menten, mixed-model inhibition fit); assay type: biochemical; details: compound 1-0.125 µM, 4-NPA 15-1400 µM
Description: In enzymatic kinetics experiments, compound 15 was tested in the presence of scalar concentrations of […]. It was added in staggered amounts (concentration range = 1-0.125 µM in DMSO) to a reaction mix containing staggered concentrations of 4-NPA (15-1400 µM in ethanol). Finally, the buffer solution containing the recombinant human MAGL enzyme (11 ng/well) was added. The enzymatic activity was measured at room temperature by recording the increase in absorbance corresponding to the increase in the concentration of […] using a Victor X3 microplate reader (PerkinElmer®). The absorbance was converted into enzymatic rate by making appropriate use of positive and negative controls. The experimental data were analyzed by […] regression analysis applying the inhibition fit of the mixed model (Fig. 1).

MDA-MB-231 = experiment: Cell viability assay (CellTiter-Glo) MDA-MB-231; assay type: cell-based; details: Homo sapiens, cell viability after 96 hours, read-out: IC50 (µM, mean ± SD) MDA-MB-231
Description: (§1) The following tumor cell lines, MDA-MB-231 (Cell Biolabs AKR-231), HCT116 (ATCC® CCL-247), CAOV3 (ATCC® HTB-75), OVCAR3 (ATCC® HTB-161) and SKOV3 (ATCC® HTB-77) were kept at 37 °C in a humidified atmosphere containing 5% CO2 according to the supplier. Cells (5 x 10^2) were plated in 96-well culture plates. The day after plating, the compounds were dissolved in DMSO and added at different concentrations to the medium (final DMSO concentration < 5%). The compounds were added to the cell culture at a concentration between 200 and 0.02 µM. Cell viability was measured after 96 hours with the CellTiter-Glo® Luminescent Cell Viability Assay kit in accordance with the supplier Promega (G7571) with a Tecan M1000 instrument. IC50 values were calculated from dose-response curves. The means were obtained from the triplicates (Table 2). Table 2. Cell viability inhibition activity (IC50, µM) of compound 15.

CAOV3 = experiment: Cell viability assay (CellTiter-Glo) CAOV3; assay type: cell-based; details: Homo sapiens, Caov-3; cell viability after 96 hours; read-out: IC50 (µM, mean ± SD) CAOV3
Description: as §1

HCT116 = experiment: Cell viability assay (CellTiter-Glo) HCT116; assay type: cell-based; details: Homo sapiens, HCT-116; cell viability after 96 hours; read-out: IC50 (µM, mean ± SD) HCT116
Description: as §1

[3] = molecular target: T1, recombinant human MAGL enzyme; experiment: MAGL dilution assay with the recombinant human MAGL enzyme; assay type: biochemical; details: 20 µM vs 40X dilution (final 0.5 µM) vs 0.5 µM (Fig. 3)
Description: […] The mixture containing the inhibitor and the enzyme was then diluted 40 times with the buffer solution. After 15 minutes of incubation, the reaction was started in a 160 µL aliquot with the addition of 40 µL of 4-NPA 500 µM in buffer and the enzyme activity was measured according to the procedure described above.
The % of inhibition of the MAGL enzyme was calculated from the measured absorbance. The absorbance measured in the presence of only enzyme with vehicle and without compound was considered as absence of inhibition (positive control), while the absorbance measured in the wells with only vehicle without enzyme and without compound was considered as 100% inhibition (negative control). Intermediate absorbance values with respect to these two extremes indicate enzymatic inhibition and are calculated as the difference between the absorbance value in the well with the compound and the absorbance value of the negative control, all scaled as a percentage considering as the maximum value the negative control and minimum value of minimum inhibition the positive control.
In dilution experiments, if compound 15 were an irreversible inhibitor, its inhibitory potency should not decrease upon dilution.

SKOV3 = experiment: Cell viability assay (CellTiter-Glo) SKOV3; assay type: cell-based; details: Homo sapiens, SK-OV-3; cell viability after 96 hours; read-out: IC50 (µM, mean ± SD) SKOV3
Description: as §1

OVCAR3 = experiment: Cell viability assay (CellTiter-Glo) OVCAR3; assay type: cell-based; details: Homo sapiens, OVCAR-3; cell viability after 96 hours; read-out: IC50 (µM, mean ± SD) OVCAR3
Description: as §1

SMILES	IC50 [1] [µM]	further results
CCCCC(=O)Nc1cc(-c2ccc(O)c(F)c2)ccc1O [Compound 1, N-(3'-Fluoro-4,4'-dihydroxy-[1,1'-biphenyl]-3-yl)pentanamide]	7.6 ± 0.1	–
CCCCCCCCC(=O)Nc1cc(-c2ccc(O)c(F)c2)ccc1O [Compound 5, N-(3'-Fluoro-4,4'-dihydroxy-[1,1'-biphenyl]-3-yl)nonanamide]	2.9 ± 0.1	–
CCCCCCCC(=O)Nc1cc(-c2ccc(O)c(F)c2)ccc1O [Compound 4, N-(3'-Fluoro-4,4'-dihydroxy-[1,1'-biphenyl]-3-yl)octanamide]	0.61 ± 0.03	–
O=C(Nc1cc(-c2ccc(O)c(F)c2)ccc1O)c1ccccc1 [Compound 12, N-(3'-Fluoro-4,4'-dihydroxy-[1,1'-biphenyl]-3-yl)benzamide]	6.9 ± 0.4	–
CC(C)C(=O)Nc1cc(-c2ccc(O)c(F)c2)ccc1O [Compound 10, N-(3'-Fluoro-4,4'-dihydroxy-[1,1'-biphenyl]-3-yl)isobutyramide]	19.7 ± 1	–
CC(C)(C)C(=O)Nc1cc(-c2ccc(O)c(F)c2)ccc1O [Compound 11, N-(3'-Fluoro-4,4'-dihydroxy-[1,1'-biphenyl]-3-yl)pivalamide]	> 20	–
O=C(Cc1ccccc1)Nc1cc(-c2ccc(O)c(F)c2)ccc1O [Compound 13, N-(3'-Fluoro-4,4'-dihydroxy-[1,1'-biphenyl]-3-yl)-2-phenylacetamide]	5.1 ± 0.5	–
CCCCCCC(=O)Nc1cc(-c2ccc(O)c(F)c2)ccc1O [Compound 3, N-(3'-Fluoro-4,4'-dihydroxy-[1,1'-biphenyl]-3-yl)eptanamide]	1.1 ± 0.1	–
O=C(CCCc1ccccc1)Nc1cc(-c2ccc(O)c(F)c2)ccc1O [Compound 15, N-(3'-Fluoro-4,4'-dihydroxy-[1,1'-biphenyl]-3-yl)-4-phenylbutanamide]	0.34 ± 0.01	Ki [2]: 0.146 µM; IC50 (MDA-MB-231): 75 ± 6 µM; IC50 (CAOV3): 34 ± 4 µM; IC50 (HCT116): 14 ± 2 µM; Inhibition mechanism from percentage of inhibition after 40X dilution [3]: reversible inhibition; IC50 (SKOV3): 16 ± 2 µM; IC50 (OVCAR3): 75 ± 4 µM
CCCCCCCCCCCC(=O)Nc1cc(-c2ccc(O)c(F)c2)ccc1O [Compound 7, N-(3'-Fluoro-4,4'-dihydroxy-[1,1'-biphenyl]-3-yl)dodecanamide]	2.8 ± 0.3	–
O=C(Cc1cccc2ccccc12)Nc1cc(-c2ccc(O)c(F)c2)ccc1O [Compound 17, N-(3'-Fluoro-4,4'-dihydroxy-[1,1'-biphenyl]-3-yl)-2-(naphtalen-1-yl)acetamide]	1.9 ± 0.1	–
CCCCCCCCCCCCCCCC(=O)Nc1cc(-c2ccc(O)c(F)c2)ccc1O [Compound 9, N-(3'-Fluoro-4,4'-dihydroxy-[1,1'-biphenyl]-3-yl)palmitamide]	> 20	–
O=C(CCCCc1ccccc1)Nc1cc(-c2ccc(O)c(F)c2)ccc1O [Compound 16, N-(3'-Fluoro-4,4'-dihydroxy-[1,1'-biphenyl]-3-yl)-5-phenylpentanamide]	1.1 ± 0.1	–
CCCCCCCCCCCCCC(=O)Nc1cc(-c2ccc(O)c(F)c2)ccc1O [Compound 8, N-(3'-Fluoro-4,4'-dihydroxy-[1,1'-biphenyl]-3-yl)tetradecanamide]	2.5 ± 0.4	–
O=C(CCc1ccccc1)Nc1cc(-c2ccc(O)c(F)c2)ccc1O [Compound 14, N-(3'-Fluoro-4,4'-dihydroxy-[1,1'-biphenyl]-3-yl)-3-phenylpropanamide]	2 ± 0.1	–
CCCCCCCCCC(=O)Nc1cc(-c2ccc(O)c(F)c2)ccc1O [Compound 6, N-(3'-Fluoro-4,4'-dihydroxy-[1,1'-biphenyl]-3-yl)decanamide]	1.1 ± 0.1	–
CCCCCC(=O)Nc1cc(-c2ccc(O)c(F)c2)ccc1O [Compound 2, N-(3'-Fluoro-4,4'-dihydroxy-[1,1'-biphenyl]-3-yl)hexanamide]	3.2 ± 0.2	–
